One assay concerns Absidia corymbifera. As to the kind of experiment: In vitro antifungal activity (MIC) against Absidia corymbifera. The note with it: Lichtheimia corymbifera; strain IFO8084; pH 7.0, 27° C., 10,000 cfu/ml, 0.2% low melting point agarose. Type of assay: cell-based.
The next assay concerns Trichosporon beigelii. The assay is described as follows: In vitro antifungal activity (MIC) against Trichosporon beigelii. Type of assay: cell-based. To be noted: ATCC28592, strain ATCC 28592, pH 7.0, 27° C., 10,000 cfu/ml, 0.2% low melting point agarose.
Assay [1] deals with Trichophyton mentagrophytes. As to the kind of experiment: In vitro antifungal activity (MIC) against Trichophyton mentagrophytes. Type of assay: cell-based. To be noted: strain CF1007, pH 7.0, 27° C., 10,000 cfu/ml, 0.2% low melting point agarose.
Procedure: (§1) MIC is defined as the minimal concentration of test compound at which no visible growth is detected. Culture media employed for measuring MICs were yeast nitrogen base (Difco) supplemented with 1% of glucose, 0.2% of low melting point agarose and 0.25% of K2 HPO4 (pH 7.0). The low melting point agarose was omitted when antifungal activity against Candida albicans and Cryptococcus neoformans was measured. The culture media were inoculated with fungal cells at the final concentration of 10,000 cfu/ml. Plates were incubated for 1-12 days at 27° C.
The subject of assay [2] is Aspergillus fumigatus. To be noted: pH 7.0, 27° C., 10,000 cfu/ml, 0.2% low melting point agarose.
Procedure: as §1
The test system of another assay is Candida albicans. The assay is described as follows: microbe, parasite or virus in culture.
The test system of a further assay is Cryptococcus neoformans. The assay is described as follows: microbe, parasite or virus in culture.
The subject of assay [3] is Aspergillus fumigatus. The assay is described as follows: microbe, parasite or virus in culture. The note with it: pH 7.
Procedure: as §1

Each structure is given as a SMILES string. Converted amounts (≈) assume the structure as drawn. Like-named read-outs stand apart in the source and are kept apart here.

Procedure for Absidia corymbifera: as §1
Procedure for Candida albicans: as §1
Procedure for Cryptococcus neoformans: as §1
Procedure for Trichosporon beigelii: as §1

Regarding `OC(Cn1cncn1)(Cn1cncn1)c1ccc(F)cc1F` [FCZ, fluconazole], the MIC in the assay with Absidia corymbifera was above 200 µg/mL; with Trichosporon beigelii it was 0.39 µg/mL (≈ 1.27 µM); in assay [1], above 200 µg/mL; against Aspergillus fumigatus [2] (strain 437), above 200 µg/mL; in the assay with Aspergillus fumigatus [2] (strain CF1004), above 200 µg/mL; with Candida albicans (ATCC48130, pH 7, strain ATCC48130, pH 7.0, 27° C., 10,000 cfu/ml), above 200 µg/mL. The MIC with Candida albicans (pH 7, strain 652, pH 7.0, 27° C., 10,000 cfu/ml) was above 200 µg/mL; in the assay with Candida albicans (pH 7, strain AD, pH 7.0, 27° C., 10,000 cfu/ml), 200 µg/mL (≈ 653 µM); against Candida albicans (pH 7, strain C42, pH 7.0, 27° C., 10,000 cfu/ml) it was above 200 µg/mL; with Candida albicans (pH 7, strain KB, pH 7.0, 27° C., 10,000 cfu/ml), above 200 µg/mL; with Cryptococcus neoformans (pH 7, strain 422, pH 7.0, 27° C., 10,000 cfu/ml), above 200 µg/mL; in the assay with Cryptococcus neoformans (pH 7, strain MTU13001, pH 7.0, 27° C., 10,000 cfu/ml), 12.5 µg/mL (≈ 40.8 µM). This compound also gave an MIC against Aspergillus fumigatus [3] above 200 µg/mL.

Values taken from patent US5641485A, “Caledothricins used in the treatment mycotic diseases” (Hoffmann-La Roche Inc., priority 1994, dated 1997).
